In patent US4549023A, “3-Aminoindazole derivatives” (priority 1980, dated 1985):
Where two headings read alike, the source gives them in different places.

Tests used:
[1] = test system: acetic acid-induced writhing in mice; assay: Acetic Acid-Writhing Test (analgesic activity); format: in vivo, Male ddy-strain mice; conditions: 100 mg/kg, oral, hydrochloric acid salts
Procedure: Acetic acid-writhing test was carried out according to Koster et al., Fed. Proc., 18, 412 (1959). […] Thirty minutes later, the mice were intraperitoneally injected with 0.1 ml/10 g of 0.7% acetic acid physiological salt solution as a stimulant. Ten minutes after the stimulant injection, writhing frequency as pain response was observed and recorded over 10 minutes.
The inhibition percentage of the test compound was represented as the ratio of the inhibition of the writhing frequency.
Analgesic activity of 3-aminoindazole derivative hydrochloric acid salts was measured by acetic acid-writhing test.

[2] = test system: carrageenin-inflamed hind paw of the rat (pressure pain); assay: Randall-Selitto Test (analgesic activity); format: in vivo, Female wister rats; conditions: for Analgesic Coefficient, Table 18: 100 mg/kg, hydrochloric acid salts; for Analgesic Coefficient, Table 18 / Analgesic coefficient: water 0.8; for Analgesic coefficient: Randall-Selitto, oral, 50 mg/kg per method; for Analgesic activity by the Randall-Selitto test: rat, in vivo
Procedure: The Randall-Selitto analgesic activity test was carried out according to the general method described in J. O. Randall & J. J. Selitto, Arch. Int. Pharmacodyn, 111, 409 (1957). Female wister rats weighing 120-150 g were orally administered 50 mg/kg of the test compound as an aqueous solution. Thirty minutes later, the pad of a hind paw of the rat was injected with 0.1 ml of 1% aqueous carrageenin solution. Pressure was applied to the paw where edema was formed by Balance-type Pressure Device (Ugo Basile Company; Italy) 1, 2, 3 and 4 hours after the injection. The weight when the test animals began to struggle with pain was measured. The analgesic activity is represented by an analgesic coefficient which is obtained by dividing the average weight measured 1.5, 2.5, 3.5 and 4.5 hours after the administration by the applied weight prior to the administration.
The analgesic activity of the 3-aminoindazole derivative hydrochloric acid salts obtained by Examples 2, 6, 10, 18, 22 and 28 of this invention was measured by the standard method of Randall-Selitto test. In these tests, the amount of the administration of the salts was 100 mg/kg.

[3] = test system: carrageenin edema in rat's paw; assay: Carrageenin Edema Test in Rat's Paw (anti-inflammatory activity); format: in vivo, Female Wistar rats; conditions: for inhibition in vivo at 100 mg/kg: Rattus norvegicus, hydrochloric acid salts; for Inhibition values compared with comparative compounds: Table 1, 100 mg/kg
Procedure: A standard method of Carrageenin Edema Test in Rat's Paw described in C. A. Winter et al., Proc. Soc. Exp. Biol. Med., 111, 544 (1962) was employed.
[…] One hour later, the pad of a hind paw of the rat was injected with 0.1 ml of 1% aqueous carrageenin solution. The volume of the paw was measured both before the injection of carrageenin and three hours after the injection.
The edema inhibition percentage of the test compound was calculated from the ratio of the increase in the volume of the affected paw of the test animals to the increase in the volume of the affected paw of the controls.
The anti-inflammatory activity of the 3-aminoindazole derivative hydrochloric acid salts of this invention was measured.
The anti-inflammatory activity of the 3-aminoindazole derivative hydrochloric acid salts obtained by Examples 1-49 of this invention was measured by the standard method of carrageenin edema test. In these tests, the amount of the administration of the salts was 100 mg/kg. The results are shown in Table 17 (Inhibition (%) was measured three hours after the injection).

[4] = Acute toxicity (LD50), intravenous injection; conditions: mouse, in vivo, male ddY-strain mice, read-out: LD50, Table 19
Procedure: Acute toxicity was measured by an ordinary method described in Finney DJ Probit Analysis Cambridge University Press 48, (1952). Ddy mice weighing about 18 g on average, each group consisting of 10 animals, were […] injected with the physiological salt solution containing the test compound. The amount of the test compound administered was varied in 5-8 groups. Three days after the administration, dead animals were counted in each group. The amount of the test compound killing half the number of the animals (LD50) was calculated from the results.
The acute toxicity of the 3-aminoindazole derivatives and their hydrochloric acid salts obtained by Examples 1-49 of this invention was measured by giving male ddY-strain mice an intravenous injection.

[5] = test system: gastric ulcer in rats; assay: Anti-Ulcer Test: occurrence of gastric ulcer by test compound alone; format: in vivo, Male donryu rats
Procedure: Ulcer inhibition of 3-(3-diethylaminopropylamino)indazole (10) and 1-(3-piperidinopropyl)-3-aminoindazole (18), typical and preferred compounds of this invention, was measured.

[6] = test system: gastric ulcer caused by indomethacin; conditions: for Ulcer index: rat, in vivo
Procedure: The test compound was suspended in 1% HCO-60 (trade name for polyoxyethylene hydrogenated castor oil; a product of Nikko Chemical Co., Ltd., Japan) at the concentration of 10 mg/ml. Male donryu rats weighing 150-160 g were orally administered 100 mg/kg of the test compound. The occurrence of gastric ulcer was examined 24 hours after the administration.
It is well known that the single use of acidic non-steroidal anti-inflammatory drugs causes a side effect in digestive tracts such as gastric ulcer.

[7] = po, 3 h, 100 mg/kg, measured three hours after the injection, read-out: Inhibition (carrageenin edema), Table 17
[8] = 100 mg/kg, oral, 3 h after carrageenin, read-out: Inhibition (carrageenin edema), Table 1
[9] = 100 mg/kg singly administered at one time, oral
[10] = 100 mg/kg compound together with 20 mg/kg of indomethacin
[11] = 100 mg/kg compound together with 10 mg/kg of indomethacin

SMILES | inhibition in vivo at 100 mg/kg [3, 7] | inhibition in vivo at 100 mg/kg [3, 8] | LD50 at 72 h [4] | other results
c1ccc2c(NCCCN3CCCCC3)n[nH]c2c1 [Compound (2), 3-(3-piperidinopropylamino)indazole] | 55% | 55% | 101 mg/kg | Inhibition (acetic acid-writhing), Table 3 [1]: 53%; Analgesic Coefficient, Table 18 [2]: 0.98; Inhibition values compared with comparative compounds [3]: higher than that of the compound C-1
CC1CCCCN1CCCNc1n[nH]c2ccccc12 (stereo not drawn) [Compound (6), 3-{3-(2-methylpiperidino)propylamino}indazole] | 67% | 67% | 91 mg/kg | Inhibition (acetic acid-writhing), Table 3 [1]: 49%; Analgesic Coefficient, Table 18 [2]: 1.11; Analgesic coefficient [2]: 1.11; Analgesic activity by the Randall-Selitto test [2]: potent analgesic activity; Inhibition (carrageenin edema), Table 2 ([3]; 25 mg/kg, oral): 40%; Inhibition (carrageenin edema), Table 2 ([3]; 50 mg/kg, oral): 53%; Inhibition (carrageenin edema), Table 2 ([3]; 100 mg/kg, oral): 67%; Inhibition values compared with comparative compounds [3]: higher than that of the compound C-1
CCN(CC)CCCNc1n[nH]c2ccccc12 [Compound (10), 3-(3-diethylaminopropylamino)indazole] | 66% | 66% | 233 mg/kg | Gastric ulcer occurrence [5, 9]: Gastric ulcer did not occur; Analgesic Coefficient, Table 18 [2]: 1.31; Occurrence frequency in combination [6, 10]: not changed; Ulcer index in combination [6, 10]: 14.9 mm; Inhibition values compared with comparative compounds [3]: higher than that of the compound C-1
Nc1nn(CCCN2CCCCC2)c2ccccc12 [Compound (18), 1-(3-piperidinopropyl)-3-aminoindazole] | 54% | 54% | 102 mg/kg | Gastric ulcer occurrence [5, 9]: Gastric ulcer did not occur; Gastric ulcer occurrence ([5]; administered for 5 days): gastric ulcer did not occur; Inhibition (acetic acid-writhing), Table 3 [1]: 43%; Analgesic Coefficient, Table 18 [2]: 1.38; Occurrence frequency in combination [6, 11]: not changed; Ulcer index in combination [6, 11]: 2.5 mm; Inhibition values compared with comparative compounds [3]: higher than those of the compounds C-2 and C-3
CC1CCCCN1CCCn1nc(N)c2ccccc21 (stereo not drawn) [Compound (22), 1-{3-(2-methylpiperidino)propyl}-3-aminoindazole] | 51% | 51% | 102 mg/kg | Inhibition (acetic acid-writhing), Table 3 [1]: 31%; Analgesic Coefficient, Table 18 [2]: 1.05; Analgesic coefficient [2]: 1.05; Analgesic activity by the Randall-Selitto test [2]: potent analgesic activity; Inhibition (carrageenin edema), Table 2 ([3]; 25 mg/kg, oral): 29%; Inhibition (carrageenin edema), Table 2 ([3]; 50 mg/kg, oral): 33%; Inhibition (carrageenin edema), Table 2 ([3]; 100 mg/kg, oral): 51%; Inhibition values compared with comparative compounds [3]: higher than those of the compounds C-2 and C-3
CN(C)CCn1nc(N)c2ccccc21 [Compound (28), 1-(2-dimethylaminoethyl)-3-aminoindazole] | 44% | 44% | 343 mg/kg | Analgesic Coefficient, Table 18 [2]: 0.96; Inhibition values compared with comparative compounds [3]: higher than those of the compounds C-2 and C-3
CCN(CC)CCCNc1nn(CCCN2CCCCC2)c2ccccc12 [Compound (38), 1-(3-piperidinopropyl)-3-(3-diethylaminopropylamino)indazole] | 29% | 29% | 168 mg/kg | 
c1ccc2c(c1)c(NCCCN1CCCCC1)nn2CCCN1CCCCC1 [Compound (39), 1-(3-piperidinopropyl)-3-(3-piperidinopropylamino)indazole] | 28% | 28% | 102 mg/kg | 
c1ccc2c(c1)c(NCCCCCCN1CCCCC1)nn2CCCN1CCCCC1 [Compound (40)] | 21% |  | 122 mg/kg | 
CC(CCNc1nn(CCCN2CCCCC2)c2ccccc12)N1CCCCC1 (stereo not drawn) [Compound (41), 1-(3-piperidinopropyl)-3-(3-piperidinobutylamino)indazole] | 28% |  | 99 mg/kg | 
CCN(CC)CCCNc1nn(CCC(C)N2CCCCC2)c2ccccc12 (stereo not drawn) [Compound (42), 1-(3-piperidinobutyl)-3-(3-diethylaminopropylamino)indazole] | 29% |  | 167 mg/kg | 
CC(CCn1nc(NCCCN2CCCCC2)c2ccccc21)N1CCCCC1 (stereo not drawn) [Compound (43), 1-(3-piperidinobutyl)-3-(3-piperidinopropylamino)indazole] | 28% |  | 98 mg/kg | 
CC(C)CC(CCNc1nn(CCC(C)N2CCCCC2)c2ccccc12)N1CCCCC1 (stereo not drawn) [Compound (44), 1-(3-piperidinobutyl)-3-(5-methyl-3-piperidinohexylamino)indazole] | 21% |  | 123 mg/kg | 
CC(CCNc1nn(CCC(C)N2CCCCC2)c2ccccc12)N(C)C (stereo not drawn) [Compound (45)] | 21% |  | 124 mg/kg | 
CCN(CC)CCCNc1nn(CCC(C)N(C)C)c2ccccc12 (stereo not drawn) [Compound (46), 1-(3-dimethylaminobutyl)-3-(3-diethylaminopropylamino)indazole] | 29% |  | 272 mg/kg | 
CC(CCn1nc(NCCCN2CCCCC2)c2ccccc21)N(C)C (stereo not drawn) [Compound (47), 1-(3-dimethylaminobutyl)-3-(3-piperidinopropylamino)indazole] | 28% |  | 212 mg/kg | 
CC(CCn1nc(NCCC(C)N2CCCCC2)c2ccccc21)N(C)C (stereo not drawn) [Compound (48), 1-(3-dimethylaminobutyl)-3-(3-piperidinobutylamino)indazole] | 27% |  | 213 mg/kg | 
CCN(CC)C(CCNc1nn(CCC(C)N(C)C)c2ccccc12)CC(C)C (stereo not drawn) [Compound (49), 1-(3-dimethylaminobutyl)-3-(3-diethylamino-5-methylhexylamino)indazole] | 21% |  | 247 mg/kg | 
CN(C)CCCNc1nn(-c2ccccc2)c2ccccc12 [Compound C-6, 1-phenyl-3-(3-dimethylaminopropylamino)indazole, reference compound] |  |  |  | Inhibition (acetic acid-writhing), Table 3 [1]: 0%
Nc1nn(-c2ccccc2)c2ccccc12 [Compound C-7, 1-phenyl-3-aminoindazole, reference compound] |  |  |  | Inhibition (acetic acid-writhing), Table 3 [1]: 17%
COc1ccc2c(c1)c(CC(=O)O)c(C)n2C(=O)c1ccc(Cl)cc1 [indomethacin, reference compound] |  |  |  | Ulcer index ([6]; 10 mg/kg): 10.2 mm; Ulcer index ([6]; 20 mg/kg): 34.3 mm
